Measured values taken from US4711898A, “4-quinolone derivatives having anti-inflammatory, anti-allergic, antitussive, expectorant and antithrombotic activity” (Nippon Shinyaku Co., Ltd., priority 1982, dated 1987).
Structures can show the parent of a compound that is named as a salt. Where two headings read alike, the source gives them in different places.

Key:
[1] = system: passive cutaneous anaphylaxis (DNP-As homocytotropic antiserum); experiment: passive cutaneous anaphylatic assay (PCA) in rats; type: in vivo, Wistar strain rats; settings: 10 mg/kg orally, one hour before antigen; for inhibition in vivo at 10 mg/kg: Rattus norvegicus, po, 1 h, read-out: PCA Inhibition Ratio %
Method in brief: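 Wistar rats were sensitised intradermally with diluted DNP-As homocytotropic antiserum and challenged 72 h later with i.v. DNP-As plus Evans Blue. Compounds were given orally at 10 mg/kg 1 h before antigen. Dye extracted from skin sites 30 min post-challenge gave inhibition relative to controls.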

male mice = experiment: Acute toxicity after oral administration; type: in vivo
Procedure: Acute toxicity was determined two weeks after oral administration of 4000 mg/kg to male mice. Four mice (denominator) are used in each group and the dead numbers are given as the numerator. The compounds of the present invention show little, if any, toxicity.

carrageenin edema = experiment: Carrageenin edema at the hind foot of rats; type: in vivo, SD-strain rats; settings: 200 mg/kg per os, one hour before carrageenin, foot volume three hours after; for inhibition in vivo at 200 mg/kg: Rattus norvegicus, po, 3 h, read-out: % Inhibition (carrageenin edema)
Procedure: The anti-inflammatory action of the compounds of the present invention were evaluated by measuring the inhibition against carrageenin edema as set forth below. Carrageenin edema at the hind foot of rats: Experimental method. SD-strain rats of body weights of around 150 grams were used, each group consisting of five rats. A solution (0.1 ml) of 0.5% carrageenin dissolved in physiological saline water was subcutaneously injected into the right hind foot pat of the rats and, one hour prior to the injection of carrageenin, 200 mg/kg of test compound was given per os. Foot volumes of the rats before the carrageenin treatment and those of three hours after the treatment were measured and the differences were compared with those of the control group to adopt as a target of the effect of the compounds.

[2] = system: SRS-A (slow reacting substance of anaphylaxis) contraction of ileum; experiment: Anti-SRS-A action using ileus of guinea pigs; type: cell-based, Hartley strain male guinea pigs; settings: 5 min, guinea pig ileum, SRS-A 20 units, compound five minutes before; for inhibition at 1 µM: Cavia porcellus, 1/1000 mM, read-out: 1/1000 mM SRS-A Inhibition Ratio %
Method in brief: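 Ileum from male Hartley guinea pigs (300 to 350 g) in oxygenated Tyrode with 10^-7 g/ml atropine and 10^-6 g/ml pyrilamine, contracted by 20 units SRS-A. Compound added five minutes before; isotonic contraction height compared with SRS-A alone.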

[3] = system: platelet aggregation induced by ADP, collagen and AA; experiment: Action against Platelet Coagulation (aggregation in platelet rich plasma of rabbits); type: cell-based, Male rabbits; settings: Oryctolagus cuniculus; for inhibition at 100 µM: final concentration 10^-4 M; for inhibition at 10 µM: final concentration 10^-5 M; for inhibition at 1 µM: final concentration 10^-6 M
Procedure: Action against Platelet Coagulation was determined as follows: Male rabbits with body weights of 3 kg or around were used. Blood was taken from their carotid artery and, immediately thereafter, 1/10 volume (to the blood) of 3.8% aqueous solution of sodium citrate was added thereto. The mixture was centrifuged at room temperature (400 g; 10 minutes) to give platelet rich plasma (abbreviated as PRP: containing 5×10^5 platelets per mm^3). The PRP was then placed into a cell for platelet coagulation meter (Niko Bioscience), stirred, 5 microliters of test compound solution in dimethyl sulfoxide was added and, one minute thereafter, 5 micromolar of ADP, 10 micrograms/ml of collagen or 25 microliters of arachidoic acid (AA) was added thereto to observe changes of extinctions. From the maximum coagulation value at the time of administration the of test compound against that at the time of the solvent addition, inhibition was calculated and the effect of the compounds against the platelet coagulation was determined.

[4] = cited from earlier work
[5] = 4000 mg/kg oral, male mice, two weeks, dead/group of four
[6] = AA 150 μM, read-out: Inhibition (%) of platelet aggregation, AA (150 μM)
[7] = ADP 5 μM, read-out: Inhibition (%) of platelet aggregation, ADP (5 μM)
[8] = collagen 10 μg/ml, read-out: Inhibition (%) of platelet aggregation, Collagen (10 μg/ml)

Compound: CCCCCCn1c(-c2ccccc2)cc(=O)c2cc(C(=O)O)ccc21 [Example 20]
- inhibition in vivo at 10 mg/kg [1]: 26.4%
- Lethal Ratio (male mice; mouse, in vivo): 1/4
- inhibition in vivo at 200 mg/kg (carrageenin edema): 10.6%
- inhibition at 1 µM [2]: 83.9%

Compound: COC(=O)c1ccc2[nH]c(-c3ccccc3I)cc(=O)c2c1 [Example 28]
- inhibition in vivo at 10 mg/kg [1]: 19.6%
- Lethal Ratio (male mice; mouse, in vivo): 0/4
- inhibition in vivo at 200 mg/kg (carrageenin edema): 15.9%
- inhibition at 1 µM [2]: 55.6%

Compound: Cc1ccccc1-c1cc(=O)c2cc(C(=O)O)ccc2[nH]1 [Example 42]
- inhibition in vivo at 10 mg/kg [1]: 43.2%
- Lethal Ratio (male mice; mouse, in vivo): 0/4
- inhibition in vivo at 200 mg/kg (carrageenin edema): 11.8%
- inhibition at 1 µM [2]: 17.4%

Compound: COC(=O)c1ccc2[nH]c(-c3ccccc3OC)cc(=O)c2c1 [Example 56]
- inhibition in vivo at 10 mg/kg [1]: 22.3%
- Lethal Ratio (male mice; mouse, in vivo): 1/4
- inhibition at 1 µM [2]: 25.2%

Compound: CCOC(=O)c1cccc2c1N=C(c1ccccc1Cl)CC2=O [Example 83, ethyl 2-(2-chlorophenyl)-4-quinolone-8-carboxylate]
- inhibition in vivo at 10 mg/kg [1]: 28.5%
- Lethal Ratio (male mice; [5]): 0/4
- inhibition in vivo at 200 mg/kg (carrageenin edema): 22.5%
- inhibition at 1 µM [2]: 75.9%
- inhibition at 100 µM [3, 6]: 100%
- inhibition at 10 µM [3, 6]: 3.3%
- inhibition at 100 µM [3, 7]: 18.5%
- inhibition at 100 µM [3, 8]: 100%
- inhibition at 10 µM [3, 8]: 14%

Compound: O=C(O)c1cccc2c(=O)cc(-c3ccccc3Cl)[nH]c12 [Example 84]
- Lethal Ratio (male mice; [5]): 0/4

Compound: O=C(O)c1cccc2c(=O)cc(-c3ccccc3Cl)[nH]c12 [Example 85]
- inhibition in vivo at 10 mg/kg [1]: 17%
- Lethal Ratio (male mice; mouse, in vivo): 0/4
- inhibition at 1 µM [2]: 27.9%

Compound: CCOC(=O)c1cccc2c(=O)cc(-c3ccc(Cl)cc3Cl)[nH]c12 [Example 89]
- inhibition in vivo at 10 mg/kg [1]: 26.2%
- Lethal Ratio (male mice; mouse, in vivo): 0/4
- inhibition at 1 µM [2]: 55.6%

Compound: CCOC(=O)c1cccc2c(=O)cc(-c3ccc(C)cc3C)[nH]c12 [Example 94]
- inhibition in vivo at 10 mg/kg [1]: 25.7%
- Lethal Ratio (male mice; mouse, in vivo): 1/4
- inhibition at 1 µM [2]: 78.6%

Compound: CCOC(=O)c1cccc2c(O)cc(-c3ccccc3Cl)nc12 [Example 100, Ethyl 2-(2-chlorophenyl)-4-hydroxyquinoline-8-carboxylate hydrochloride]
- inhibition in vivo at 10 mg/kg [1]: 29.7%
- Lethal Ratio (male mice; [5]): 0/4
- inhibition at 1 µM [2]: 70.5%

Compound: CCOC(=O)c1cccc2c(=O)cc(-c3ccc(OC)cc3OC)[nH]c12 [Example 108]
- inhibition in vivo at 10 mg/kg [1]: 14%
- inhibition in vivo at 200 mg/kg (carrageenin edema): 51%
- inhibition at 1 µM [2]: 95%

Compound: O=C1CC(c2ccccc2Cl)=Nc2c1cccc2C(=O)OCCO [Example 109, Beta-Hydroxyethyl 2-(2-chlorophenyl)-4-quinolone-8-carboxylate]
- inhibition in vivo at 10 mg/kg [1]: 29.2%
- inhibition in vivo at 200 mg/kg (carrageenin edema): 30.7%
- inhibition at 1 µM [2]: 100%

Compound: C=CCOC(=O)c1cccc2c1N=C(c1ccccc1Cl)CC2=O [Example 110, Allyl 2-(2-chlorophenyl)-4-quinolone-8-carboxylate]
- inhibition in vivo at 10 mg/kg [1]: 17.7%
- inhibition in vivo at 200 mg/kg (carrageenin edema): 19.2%
- inhibition at 1 µM [2]: 18.9%

Compound: CC(C)COC(=O)c1cccc2c(=O)cc(-c3ccccc3Cl)[nH]c12 [Example 112]
- inhibition in vivo at 10 mg/kg [1]: 24.3%
- inhibition in vivo at 200 mg/kg (carrageenin edema): 10%
- inhibition at 1 µM [2]: 25%

Compound: CC(=O)OCCOC(=O)c1cccc2c(=O)cc(-c3ccccc3Cl)[nH]c12 [Example 118]
- inhibition in vivo at 10 mg/kg [1]: 41.5%
- inhibition in vivo at 200 mg/kg (carrageenin edema): 27.9%
- inhibition at 1 µM [2]: 64.2%

Compound: CCOCCOC(=O)c1cccc2c(=O)cc(-c3ccccc3Cl)[nH]c12 [Example 120]
- inhibition in vivo at 10 mg/kg [1]: 10.7%
- inhibition in vivo at 200 mg/kg (carrageenin edema): 29.4%
- inhibition at 1 µM [2]: 20.3%

Compound: CC(O)COC(=O)c1cccc2c(=O)cc(-c3ccccc3Cl)[nH]c12 (stereo not drawn) [Example 125]
- inhibition in vivo at 10 mg/kg [1]: 10.4%
- inhibition in vivo at 200 mg/kg (carrageenin edema): 17.2%
- inhibition at 1 µM [2]: 15.6%

Compound: CCOC(=O)CC(=O)COC(=O)c1cccc2c(=O)cc(-c3ccccc3Cl)[nH]c12 [Example 130]
- inhibition in vivo at 10 mg/kg [1]: 20.3%
- inhibition in vivo at 200 mg/kg (carrageenin edema): 18.3%
- inhibition at 1 µM [2]: 12.7%

Compound: O=C(OCCO)c1cccc2c(=O)cc(-c3ccccc3F)[nH]c12 [Example 131]
- inhibition in vivo at 10 mg/kg [1]: 28.5%
- inhibition in vivo at 200 mg/kg (carrageenin edema): 29.9%
- inhibition at 1 µM [2]: 14%

Compound: O=C(OCCO)c1cccc2c(=O)cc(-c3ccc(Cl)cc3)[nH]c12 [Example 133]
- inhibition in vivo at 10 mg/kg [1]: 17%
- inhibition in vivo at 200 mg/kg (carrageenin edema): 10%
- inhibition at 1 µM [2]: 21.3%

Compound: Cc1ccc(-c2cc(=O)c3cccc(C(=O)OCCO)c3[nH]2)c(C)c1 [Example 136]
- inhibition in vivo at 10 mg/kg [1]: 19.4%
- inhibition in vivo at 200 mg/kg (carrageenin edema): 26.9%
- inhibition at 1 µM [2]: 15.4%

Compound: COc1ccc2c(c1)c(CC(=O)O)c(C)n2C(=O)c1ccc(Cl)cc1 [Indomethacin]
- inhibition at 100 µM [3, 6]: 100%
- inhibition at 10 µM [3, 6]: 100%
- inhibition at 1 µM [3, 6]: 1.6%
- inhibition at 100 µM [3, 7]: 2.6%
- inhibition at 100 µM [3, 8]: 100%
- inhibition at 10 µM [3, 8]: 100%
- inhibition at 1 µM [3, 8]: 19.6%

Compound: O=C(O)c1cc(=O)c2c(OCC(O)COc3cccc4oc(C(=O)O)cc(=O)c34)cccc2o1 [Sodium chromoglicate]
- effect on oral administration [4]: does not show any effect on oral administration

Compound: Ethyl 2-phenyl-4-quinolone-8-carboxylate [Example 80]
- PCA Inhibition Ratio % [1]: 20.9%
- % Inhibition (carrageenin edema) (carrageenin edema): 14.7%
- 1/1000 mM SRS-A Inhibition Ratio % [2]: 52.4%
